# Laboratory results taken from patent US20140357713A1, “ANTIMICROBIAL COMPOUNDS AND METHODS OF USE” (NexMed Holdings, Inc., priority 2012, published 2014).
# Counter-ions that a name gives are not always drawn. Like-named read-outs stand apart in the source and are kept apart here.
# Key:
# [1] = test system: Candida albicans (ATCC 90029); experiment: Minimum inhibitory concentration (MIC) assay, Example 33; type: cell-based; conditions: for MIC: Candida albicans; for MIC Candida albicans: sulfate
# Summary of the method: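 Broth microdilution per CLSI guidelines in RPMI 1640; inoculum set to OD530 0.08–0.13, diluted 1:50 then 1:20 to 2× strength and mixed 1:2 with 2-fold serial compound dilutions. Incubated at 35° C; MIC read per CLSI.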
# [2] = test system: Escherichia coli (ATCC 25922); experiment: Time kill study, Example 33 (0 to 5 min); type: cell-based; conditions: 1×MIC
# Summary of the method: (§1)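 Per CLSI guidelines, strain suspensions were mixed 1:1 by volume with compound solution; samples taken at 0 min, 30 sec, 1 min and 5 min were diluted and plated on agar. Colonies were counted after 24 to 48 hrs incubation and viable counts reported as Log10 CFU/mL.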
# [3] = test system: Staphylococcus aureus (ATCC 29213); experiment: Time kill study, Example 33 (0 to 5 min); type: cell-based; conditions: 1×MIC
# Summary of the method: as §1
# [4] = test system: Pseudomonas aeruginosa (ATCC 27853); experiment: Time kill study, Example 33 (0 to 5 min); type: cell-based; conditions: 1×MIC
# Summary of the method: as §1
# [5] = test system: Escherichia coli (ATCC 25922); experiment: Minimum inhibitory concentration (MIC) assay, Example 33; type: cell-based
# Summary of the method: (§2)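 Broth microdilution MIC per CLSI guidelines, in CAMHB with serial 2-fold compound dilutions. Bacterial inocula were adjusted to a 0.5 McFarland standard, then diluted 1:100 and 1:2 in the wells. Plates were incubated at 35 °C, and the MIC was read according to CLSI.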
# [6] = test system: Pseudomonas aeruginosa (ATCC 27853); experiment: as above; type: cell-based
# Summary of the method: as §2
# [7] = test system: Aspergillus niger (CMCC 98003); experiment: as above; type: cell-based; conditions: for MIC Aspergillus niger: n = 2
# Summary of the method: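 Broth microdilution MIC per CLSI guidelines in RPMI 1640 with serial 2-fold compound dilutions. Spore suspension from sporulating colonies adjusted to OD530 0.09-0.13, diluted 1:50 as 2× inoculum and added 1:2 to drug wells; plates incubated at 35 °C and MIC read per CLSI.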
# pH (Table 1) = type: physicochemical
# [8] = Solubility (Sol., Table 1); type: physicochemical
# [9] = test system: Staphulococcus aureus (ATCC 29213); experiment: Minimum inhibitory concentration (MIC) assay, Example 33; type: cell-based, Staphylococcus aureus
# Summary of the method: as §2
# [10] = test system: Candida albicans (ATCC 90029); experiment: Time kill study, Example 33 (0 to 5 min); type: cell-based; conditions: 1×MIC, sulfate
# Summary of the method: as §1
# [11] = ATCC90029, read-out: MIC Candida albicans, n = 1
# [12] = ATCC90029, read-out: MIC Candida albicans, n = 2
# [13] = Escherichia coli, ATCC25922, Table 19 summary of Example 33 and Example 35
# [14] = Escherichia coli, ATCC25922, read-out: MIC E. coli, n = 1
# [15] = Escherichia coli, ATCC25922, read-out: MIC E. coli, n = 2
# [16] = Pseudomonas aeruginosa, ATCC27853, Table 19 summary
# [17] = Pseudomonas aeruginosa, ATCC27853, read-out: MIC P. aeruginosa, n = 1
# [18] = Pseudomonas aeruginosa, ATCC27853, read-out: MIC P. aeruginosa, n = 2
# [19] = Aspergillus niger, CMCC98003, read-out: MIC Aspergillus niger
# [20] = Staphylococcus aureus, ATCC29213, Table 19 summary
# [21] = Staphylococcus aureus, ATCC29213, read-out: MIC S. aureus, n = 1
# [22] = Staphylococcus aureus, ATCC29213, read-out: MIC S. aureus, n = 2
smiles,measurement,setting,value
"CCCCCCCCCCCC(C)OC(=O)C(C)N(C)C (stereo not drawn) [Nex-64, Tridecan-2-yl 2-(dimethylamino)propanoate hydrochloride]",MIC,"[1]; ATCC90029, Table 19 summary",> 12500 µg/mL
same,MIC,[1]; [11],> 12500 µg/mL
same,MIC,[1]; [12],> 12500 µg/mL
same,"Viable counts, Escherichia coli time kill study",[2]; 0.5 min,5.73 Log10 CFU/mL
same,"Viable counts, Escherichia coli time kill study",[2]; 1 min,5.7 Log10 CFU/mL
same,"Viable counts, Escherichia coli time kill study",[2]; 5 min,<3.52 Log10 CFU/mL
same,"Viable counts, Escherichia coli time kill study",[2]; time 0,5.71 Log10 CFU/mL
same,"Viable counts, Staphylococcus aureus time kill study",[3]; 0.5 min,6.41 Log10 CFU/mL
same,"Viable counts, Staphylococcus aureus time kill study",[3]; 1 min,6.38 Log10 CFU/mL
same,"Viable counts, Staphylococcus aureus time kill study",[3]; 5 min,6.36 Log10 CFU/mL
same,"Viable counts, Staphylococcus aureus time kill study",[3]; time 0,6.34 Log10 CFU/mL
same,"Viable counts, Pseudomonas aeruginosa time kill study",[4]; 0.5 min,4 Log10 CFU/mL
same,"Viable counts, Pseudomonas aeruginosa time kill study",[4]; 1 min,<3.70 Log10 CFU/mL
same,"Viable counts, Pseudomonas aeruginosa time kill study",[4]; 5 min,<3.52 Log10 CFU/mL
same,"Viable counts, Pseudomonas aeruginosa time kill study",[4]; time 0,5.45 Log10 CFU/mL
same,MIC,[5]; [13],3130 µg/mL
same,MIC,[5]; [14],3130 µg/mL
same,MIC,[5]; [15],3130 µg/mL
same,MIC,[6]; [16],6250 µg/mL
same,MIC,[6]; [17],6250 µg/mL
same,MIC,[6]; [18],6250 µg/mL
same,MIC,"[7]; Aspergillus niger, CMCC98003",> 12500 µg/mL
same,MIC,[7]; [19],> 12500 µg/mL
same,MIC Aspergillus niger,[7],>12500 µg/mL
same,pH,pH (Table 1),1.95
same,Sol.,[8],44%
same,MIC,[9]; [20],3130 µg/mL
same,MIC,[9]; [21],3130 µg/mL
same,MIC,[9]; [22],3130 µg/mL
"CCCCCCCCCCCCOC(=O)C(C(C)C)N(C)C (stereo not drawn) [Nex-53, Dodecyl 2-(dimethylamino)-3-methylbutanoate hydrochloride]",MIC,"[1]; ATCC90029, Table 19 summary",> 12500 µg/mL
same,MIC,[1]; [11],> 12500 µg/mL
same,MIC,[1]; [12],> 12500 µg/mL
same,"Viable counts, Escherichia coli time kill study",[2]; 0.5 min,5.72 Log10 CFU/mL
same,"Viable counts, Escherichia coli time kill study",[2]; 1 min,5.71 Log10 CFU/mL
same,"Viable counts, Escherichia coli time kill study",[2]; 5 min,<3.52 Log10 CFU/mL
same,"Viable counts, Escherichia coli time kill study",[2]; time 0,5.64 Log10 CFU/mL
same,"Viable counts, Staphylococcus aureus time kill study",[3]; 0.5 min,6.2 Log10 CFU/mL
same,"Viable counts, Staphylococcus aureus time kill study",[3]; 1 min,6.24 Log10 CFU/mL
same,"Viable counts, Staphylococcus aureus time kill study",[3]; 5 min,6.21 Log10 CFU/mL
same,"Viable counts, Staphylococcus aureus time kill study",[3]; time 0,6.35 Log10 CFU/mL
same,"Viable counts, Pseudomonas aeruginosa time kill study",[4]; 0.5 min,5.54 Log10 CFU/mL
same,"Viable counts, Pseudomonas aeruginosa time kill study",[4]; 1 min,5.47 Log10 CFU/mL
same,"Viable counts, Pseudomonas aeruginosa time kill study",[4]; 5 min,5.49 Log10 CFU/mL
same,"Viable counts, Pseudomonas aeruginosa time kill study",[4]; time 0,5.54 Log10 CFU/mL
same,MIC,[5]; [13],6250 µg/mL
same,MIC,[5]; [14],6250 µg/mL
same,MIC,[5]; [15],6250 µg/mL
same,MIC,[6]; [16],6250 µg/mL
same,MIC,[6]; [17],6250 µg/mL
same,MIC,[6]; [18],6250 µg/mL
same,MIC,"[7]; Aspergillus niger, CMCC98003",> 12500 µg/mL
same,MIC,[7]; [19],> 12500 µg/mL
same,MIC Aspergillus niger,[7],>12500 µg/mL
same,pH,pH (Table 1),1.69
same,Sol.,[8],44%
same,MIC,[9]; [20],6250 µg/mL
same,MIC,[9]; [21],6250 µg/mL
same,MIC,[9]; [22],6250 µg/mL
"CCCCCCCCCCCCCCOC(=O)C(C)N(C)C (stereo not drawn) [Nex-66, Tetradecyl 2-(dimethylamino)propanoate hydrochloride]",MIC,"[1]; ATCC90029, Table 19 summary",> 12500 µg/mL
same,MIC,[1]; [11],> 12500 µg/mL
same,MIC,[1]; [12],> 12500 µg/mL
same,"Viable counts, Escherichia coli time kill study",[2]; 0.5 min,5.91 Log10 CFU/mL
same,"Viable counts, Escherichia coli time kill study",[2]; 1 min,6.03 Log10 CFU/mL
same,"Viable counts, Escherichia coli time kill study",[2]; 5 min,5.81 Log10 CFU/mL
same,"Viable counts, Escherichia coli time kill study",[2]; time 0,5.7 Log10 CFU/mL
same,"Viable counts, Staphylococcus aureus time kill study",[3]; 0.5 min,6.5 Log10 CFU/mL
same,"Viable counts, Staphylococcus aureus time kill study",[3]; 1 min,6.41 Log10 CFU/mL
same,"Viable counts, Staphylococcus aureus time kill study",[3]; 5 min,6.39 Log10 CFU/mL
same,"Viable counts, Staphylococcus aureus time kill study",[3]; time 0,6.27 Log10 CFU/mL
same,"Viable counts, Pseudomonas aeruginosa time kill study",[4]; 0.5 min,5.91 Log10 CFU/mL
same,"Viable counts, Pseudomonas aeruginosa time kill study",[4]; 1 min,5.68 Log10 CFU/mL
same,"Viable counts, Pseudomonas aeruginosa time kill study",[4]; 5 min,5.56 Log10 CFU/mL
same,"Viable counts, Pseudomonas aeruginosa time kill study",[4]; time 0,5.64 Log10 CFU/mL
same,MIC,[5]; [13],3130 µg/mL
same,MIC,[5]; [14],3130 µg/mL
same,MIC,[5]; [15],3130 µg/mL
same,MIC,[6]; [16],6250 µg/mL
same,MIC,[6]; [17],6250 µg/mL
same,MIC,[6]; [18],6250 µg/mL
same,MIC,"[7]; Aspergillus niger, CMCC98003",> 12500 µg/mL
same,MIC,[7]; [19],> 12500 µg/mL
same,MIC Aspergillus niger,[7],>12500 µg/mL
same,pH,pH (Table 1),2.35
same,Sol.,[8],48%
same,MIC,[9]; [20],3130 µg/mL
same,MIC,[9]; [21],3130 µg/mL
same,MIC,[9]; [22],3130 µg/mL
"CCCCCCCCCCCCOC(=O)C(C)N(C)C (stereo not drawn) [Nex-03, Dodecyl 2-(dimethylamino)propanoate sulfate]",MIC Candida albicans,[1]; n = 1,12500 µg/mL
same,MIC Candida albicans,[1]; n = 2,6250 µg/mL
same,"Viable counts, Candida albicans time kill study",[10]; 0.5 min,5.53 Log10 CFU/mL
same,"Viable counts, Candida albicans time kill study",[10]; 1 min,5.54 Log10 CFU/mL
same,"Viable counts, Candida albicans time kill study",[10]; 5 min,5.52 Log10 CFU/mL
same,"Viable counts, Candida albicans time kill study",[10]; time 0,5.6 Log10 CFU/mL
same,"Viable counts, Escherichia coli time kill study","[2]; 0.5 min, sulfate",4.90 Log10 CFU/mL
same,"Viable counts, Escherichia coli time kill study","[2]; 1 min, sulfate",4.18 Log10 CFU/mL
same,"Viable counts, Escherichia coli time kill study","[2]; 5 min, sulfate",3.82 Log10 CFU/mL
same,"Viable counts, Escherichia coli time kill study","[2]; time 0, sulfate",4.92 Log10 CFU/mL
same,"Viable counts, Staphylococcus aureus time kill study","[3]; 0.5 min, sulfate",6.1 Log10 CFU/mL
same,"Viable counts, Staphylococcus aureus time kill study","[3]; 1 min, sulfate",6.12 Log10 CFU/mL
same,"Viable counts, Staphylococcus aureus time kill study","[3]; 5 min, sulfate",6.11 Log10 CFU/mL
same,"Viable counts, Staphylococcus aureus time kill study","[3]; time 0, sulfate",6.11 Log10 CFU/mL
same,"Viable counts, Pseudomonas aeruginosa time kill study","[4]; 0.5 min, sulfate",<4.0 Log10 CFU/mL
same,"Viable counts, Pseudomonas aeruginosa time kill study","[4]; 1 min, sulfate",<3.70 Log10 CFU/mL
same,"Viable counts, Pseudomonas aeruginosa time kill study",[4]; 5 min,<3.52 Log10 CFU/mL
same,"Viable counts, Pseudomonas aeruginosa time kill study","[4]; time 0, sulfate",5.6 Log10 CFU/mL
same,MIC,"[5]; Table 19 summary of Example 33 and Example 35, sulfate",1560 µg/mL
same,MIC E. coli,"[5]; n = 1, sulfate",1560 µg/mL
same,MIC E. coli,"[5]; n = 2, sulfate",1560 µg/mL
same,MIC,"[6]; Table 19 summary, sulfate",3130 µg/mL
same,MIC P. aeruginosa,"[6]; n = 1, sulfate",3130 µg/mL
same,MIC P. aeruginosa,"[6]; n = 2, sulfate",3130 µg/mL
same,MIC,"[7]; Aspergillus niger, CMCC98003, n = 1, read-out: MIC Aspergillus niger",> 12500 µg/mL
same,MIC,"[7]; Aspergillus niger, CMCC98003, n = 2, read-out: MIC Aspergillus niger",> 12500 µg/mL
same,MIC,"[7]; Table 19 summary, sulfate",>12500 µg/mL
same,pH,pH (Table 1); sulfate,1.60
same,MIC,"[9]; Table 19 summary, sulfate",1560 µg/mL
same,MIC S. aureus,"[9]; n = 1, sulfate",1560 µg/mL
same,MIC S. aureus,"[9]; n = 2, sulfate",1560 µg/mL
"CCCCCCCCCCCCOC(=O)C(C(C)O)N(C)C (stereo not drawn) [Nex-51, Dodecyl 2-(dimethylamino)-3-hydroxybutanoate hydrochloride]",pH,pH (Table 1),0.56
same,Sol.,[8],98%
